Laboratory results published in patent US20250057793A1, “BENZOIC ACID SALTS FOR TREATMENT OF NERVOUS SYSTEM INJURIES AND DISORDERS” (The United States Government as represented by the …, priority 2021, published 2025).

Experiments:
[1] = tested on: cuprizone-intoxicated mice; assay: Remyelination of corpus callosum in cuprizone-intoxicated mouse model of demyelination; format: in vivo; settings: cuprizone diet 5 weeks, then NaB 50 mg/kg body wt/d oral gavage 3 weeks
Experimental: FIGS. 16A-16C: Oral NaB stimulates the maturation of OPCs in vivo in the corpus callosum of cuprizone-intoxicated mice. C57/BL6 mice (8-10 week old; male) were fed cuprizone-containing diet (Envigo) for 5 weeks followed by treatment with NaB (50 mg/kg body wt/d) orally via gavage. FIG. 16A) After 3 weeks of treatment with NaB, corpus callosum sections were double-labeled for PLP and A2B5. Mean fluorescence intensity (MFI) of A2B5 (FIG. 16B) and PLP (FIG. 16C) were quantified from one section (two images per section) of each of 5 mice group. Results are mean+SEM of 5 mice per group. ***p<0.001; **p<0.01.
FIGS. 17A-17H: Effect of NaB on myelination in vivo in the corpus callosum of cuprizone-intoxicated mice. C57/BL6 mice (8-10 week old; male; n=5) were fed cuprizone-containing diet (Envigo) for 5 weeks followed by treatment with NaB (50 mg/kg body wt/d) orally via gavage. After 3 weeks of treatment with NaB, corpus callosum sections were immunostained MBP (FIG. 17A) and PLP (FIG. 17B). Mean fluorescence intensity (MFI) of MBP (FIG. 17C) and PLP (FIG. 17D) were quantified from one section (two images per section) of each of 5 mice group. Results are mean+SEM of 5 mice per group. **p<0.01; *p<0.05. FIG. 17E) Corpus callosum sections were stained for luxol fast blue (LFB). FIG. 17F) For electron microscopic studies, 50 μm thick sagittal sections were prepared and stained followed by analysis of corpus callosum sections for different parameters to evaluate axonal ultrastructures. FIG. 17G) G score was calculated in 75 axons per group for all three groups. FIG. 17H) Percentage of myelinated axons was calculated in 7 randomly selected corpus callosum sections of 5 mice per group. ***p<0.001.

LPS-stimulated microglia = settings: cited from earlier work
[2] = if consumed in excess; cited from earlier work
[3] = tested on: OPCs cultured on polycaprolactone nanofibers; assay: Myelination of synthetic polycaprolactone nanofibers by OPCs; format: cell-based, mouse; settings: 100 μM, 2 days after 7 days culture on nanofibers
Experimental: FIG. 15A) After 18 h of 100 μM NaB treatment in serum-free condition, cells were fixed and then dual immuno-stained with MBP (red) and OPC marker NG2 (green). Nuclei were stained with DAPI (blue). FIG. 15B) Similarly, OPCs were stained with PLP (red) and A2B5 (green) under similar treatment condition. Quantification of MBP+(FIG. 15C), NG2+(FIG. 15D), PLP+(FIG. 15E), and A2B5+(FIG. 15F) cells as a percentage of total cells (DAPI+). Average 5 fields per slide, total 3 slides. Results are mean+SEM. ***p<0.001. FIG. 15G) For protein expression, cells were treated with different doses of NaB for 18 h under serum free condition and then immunoblotted with PLP and MOG. FIG. 15H) Densitometric analyses of the bands relative to beta actin were done for PLP and MOG. ^ap<0.001 vs. control PLP; ^bp<0.005 vs. control MOG. FIG. 151) Cells were treated with NaB (100 μM) and NaFO (100 μM) for 4 h under serum-free condition followed by monitoring the mRNA expression of myelin-specific genes by real-time PCR (ap<0.01 vs. control PLP; ^bp<0.01 vs. control MOG; cp<0.01 vs. control MBP; dp<0.01 vs. control CNPase). OPCs were cultured on the top of randomly-oriented polycaprolactone nanofibers (Nanofiber Solutions; Cat #Z694576) for 7 days. […]

[4] = tested on: Huntington pathology in mice; settings: oral, 50 mg/kg body wt/d; cited from earlier work
TBI mice [5] = assay: Synapse maturation markers (PSD-95, NR2A, GluR1) in brain of TBI mice; format: in vivo, mouse; settings: 21 days post-injury, 50 mg/kg/day oral gavage
Experimental: FIGS. 1lA-11H. Restoration of PSD-95, NR2A and GluR1 in the hippocampus of TBI mice by oral administration of GTB. […] Twenty-one days after CCI injury, brain sections were double-labeled for NeuN and PSD-95 (FIG. 11A, control; FIG. 111B, CCI; FIG. 11C, CCI+GTB; FIG. 11D, CCI+Vehicle). Results represent analysis of one section of each of six mice per group. […] FIG. 11E. Actin was run as a loading control. […] Data are expressed as mean+SD. Statistical analyses were performed with one way ANOVA.

[6] = tested on: experimental allergic encephalomyelitis (EAE) in mice; settings: oral, 50 mg/kg body wt/d; cited from earlier work
TBI mice [7] = assay: Novel object recognition (NOR) test in TBI mice; format: in vivo, mouse; settings: 21 days post-injury, 50 mg/kg/day oral gavage
Experimental: This test evaluates the animal's ability to recognize the novel object in the environment and monitor short-term memory. Initially, the mice were placed in a square novel box (20 in. long×8 in. high) surrounded with an infrared sensor. Two plastic toys (2.5-3 in. size) that varied in color, shape, and texture were placed in specific locations in the environment 18in. away from each other. The mice were able to freely explore the environment and objects for 15 mins and were then placed back into their individual home cages. After 30 min intervals, the mice were placed back into the environment, with the 2 objects in the same locations, but now one of the familiar objects was replaced with a third novel object. The mice were again allowed to freely explore both objects for 15 min. The familiar and novel objects were thoroughly cleaned with a mild detergent after each testing session.

Row | SMILES | MBP in corpus callosum [1] | level of A2B5 in corpus callosum [1] | level of PLP in corpus callosum [1] | maturation of OPCs in vivo in the corpus callosum [1] | remyelination in the corpus callosum [1] | level of TLR4 (LPS-stimulated microglia; LPS-stimulated microglia) | LPS-induced expression of iNOS and proinflammatory cytokines (LPS-stimulated microglia; microglia) | p21ras activation (LPS-stimulated microglia; microglial cells) | excretion [2] | myelination of synthetic fibers (MBP immunofluorescence) [3] | Huntington pathology [4] | level of PSD-95 (TBI mice [5]; brain (cortex, hippocampus)) | level of GluR1 (TBI mice [5]; hippocampus) | level of NR2A (TBI mice [5]; hippocampus) | adoptive transfer of EAE [6] | time spent with novel object (exploration time) (TBI mice [7])
1 | O=C([O-])c1ccccc1.[Na+] [NaB, Sodium benzoate] | increased | decreased | increased | stimulates | can promote remyelination | has no effect | inhibits | suppression | secreted through the urine | stimulation of myelination | – | – | – | – | – | –
2 | O=C(OCC(COC(=O)c1ccccc1)OC(=O)c1ccccc1)c1ccccc1 [GTB, Glyceryl Tribenzoate] | – | – | – | – | – | – | – | – | – | – | alleviates | upregulated | increased | increased | inhibits | significantly more time
